Results: the supplement of paper PMC10307832

Experiments:
Experiment in all cases: relative viability (nuclei count vs DMSO), 5 days (fraction); higher = more cells survive
[1] = tested on: NCI-H2347
Method in brief: (§1)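 Five library-drug doses in √10 steps were combined with a fixed anchor-drug dose, or a single drug was given alone, by pin tool to lung cancer cell lines in 1536-well plates the day after seeding. Nuclei were stained and counted after 5 days. Relative viability is the nuclei count in treated wells over that in vehicle wells, taken as the median of duplicate plates.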

[2] = tested on: NCI-H727
Method in brief: as §1

[3] = tested on: UMC-11
Method in brief: as §1

[4] = tested on: 201T
Method in brief: as §1

[5] = tested on: NCI-H1650
Method in brief: as §1

[6] = tested on: NCI-H1734
Method in brief: as §1

[7] = tested on: NCI-H1355
Method in brief: as §1

[8] = tested on: HCC-78
Method in brief: as §1

[9] = tested on: HCC-44
Method in brief: as §1

[10] = tested on: HCC-366
Method in brief: as §1

[11] = tested on: NCI-H838
Method in brief: as §1

[12] = tested on: NCI-H1666
Method in brief: as §1

[13] = tested on: NCI-H2228
Method in brief: as §1

[14] = tested on: LK-2
Method in brief: as §1

[15] = tested on: BEN
Method in brief: as §1

[16] = tested on: NCI-H2009
Method in brief: as §1

[17] = tested on: LOU-NH91
Method in brief: as §1

[18] = tested on: IA-LM
Method in brief: as §1

[19] = tested on: NCI-H2405
Method in brief: as §1

[20] = tested on: NCI-H520
Method in brief: as §1

[21] = tested on: NCI-H1703
Method in brief: as §1

[22] = tested on: SW 1573
Method in brief: as §1

[23] = tested on: NCI-H1755
Method in brief: as §1

**Q.** Which results are given for `CCCCCCCCCCCC1=C(O)C(=O)C=C(O)C1=O` [Embelin] + CC1(C)CCC(c2ccc(Cl)cc2)=C(CN2CCN(c3ccc(C(=O)NS(=O)(=O)c4ccc(N[C@H](CCN5CCOCC5)CSc5ccccc5)c(S(=O)(=O)C(F)(F)F)c4)cc3)CC2)C1 [Navitoclax] (partner 0.5 µM)?
**A.** relative viability ([1]; first compound 0.08 µM): 0.746; relative viability ([1]; first compound 0.8 µM): 0.95; relative viability ([1]; first compound 2.53 µM): 1.01; relative viability ([1]; first compound 8 µM): 0.811; relative viability ([2]; first compound 0.08 µM): 0.4; relative viability ([2]; first compound 0.8 µM): 0.537; relative viability ([2]; first compound 2.53 µM): 0.435; relative viability ([2]; first compound 8 µM): 0.392; relative viability ([3]; first compound 0.08 µM): 0.328; relative viability ([3]; first compound 0.8 µM): 0.32; relative viability ([3]; first compound 2.53 µM): 0.319; relative viability ([3]; first compound 8 µM): 0.289; relative viability ([4]; first compound 0.08 µM): 1.18; relative viability ([4]; first compound 0.8 µM): 1.19; relative viability ([4]; first compound 2.53 µM): 1.19; relative viability ([4]; first compound 8 µM): 1.17; relative viability ([5]; first compound 0.08 µM): 1.27; relative viability ([5]; first compound 0.8 µM): 1.37; relative viability ([5]; first compound 2.53 µM): 1.57; relative viability ([5]; first compound 8 µM): 1.36; relative viability ([6]; first compound 0.08 µM): 0.847; relative viability ([6]; first compound 0.8 µM): 1.09; relative viability ([6]; first compound 2.53 µM): 1.23; relative viability ([6]; first compound 8 µM): 0.894; relative viability ([7]; first compound 0.08 µM): 1.04; relative viability ([7]; first compound 0.8 µM): 1.05; relative viability ([7]; first compound 2.53 µM): 1.06; relative viability ([7]; first compound 8 µM): 0.884; relative viability ([8]; first compound 0.08 µM): 0.797; relative viability ([8]; first compound 0.8 µM): 0.931; relative viability ([8]; first compound 2.53 µM): 0.863; relative viability ([8]; first compound 8 µM): 0.762; relative viability ([9]; first compound 0.08 µM): 0.903; relative viability ([9]; first compound 0.8 µM): 0.911; relative viability ([9]; first compound 2.53 µM): 1.07; relative viability ([9]; first compound 8 µM): 0.923; relative viability ([10]; first compound 0.08 µM): 0.953; relative viability ([10]; first compound 0.8 µM): 1.16; relative viability ([10]; first compound 2.53 µM): 1.13; relative viability ([10]; first compound 8 µM): 1.11; relative viability ([11]; first compound 0.08 µM): 1.19; relative viability ([11]; first compound 0.8 µM): 1.25; relative viability ([11]; first compound 2.53 µM): 1.2; relative viability ([11]; first compound 8 µM): 1.18; relative viability ([12]; first compound 0.08 µM): 1.21; relative viability ([12]; first compound 0.8 µM): 1.22; relative viability ([12]; first compound 2.53 µM): 0.995; relative viability ([12]; first compound 8 µM): 0.999; relative viability ([13]; first compound 0.08 µM): 0.793; relative viability ([13]; first compound 0.8 µM): 0.955; relative viability ([13]; first compound 2.53 µM): 1.28; relative viability ([13]; first compound 8 µM): 0.604; relative viability ([14]; first compound 0.08 µM): 0.904; relative viability ([14]; first compound 0.8 µM): 1.2; relative viability ([14]; first compound 2.53 µM): 1.26; relative viability ([14]; first compound 8 µM): 0.809; relative viability ([15]; first compound 0.08 µM): 0.0728; relative viability ([15]; first compound 0.8 µM): 0.0709; relative viability ([15]; first compound 2.53 µM): 0.0714; relative viability ([15]; first compound 8 µM): 0.0735; relative viability ([16]; first compound 0.08 µM): 1.23; relative viability ([16]; first compound 0.8 µM): 1.24; relative viability ([16]; first compound 2.53 µM): 1.23; relative viability ([16]; first compound 8 µM): 1.08; relative viability ([17]; first compound 0.08 µM): 0.77; relative viability ([17]; first compound 0.8 µM): 1.02; relative viability ([17]; first compound 2.53 µM): 0.837; relative viability ([17]; first compound 8 µM): 0.637; relative viability ([18]; first compound 0.08 µM): 1.03; relative viability ([18]; first compound 0.8 µM): 0.87; relative viability ([18]; first compound 2.53 µM): 0.92; relative viability ([18]; first compound 8 µM): 0.305; relative viability ([19]; first compound 0.08 µM): 0.986; relative viability ([19]; first compound 0.8 µM): 1.41; relative viability ([19]; first compound 2.53 µM): 0.875; relative viability ([19]; first compound 8 µM): 0.906; relative viability ([20]; first compound 0.08 µM): 1.24; relative viability ([20]; first compound 0.8 µM): 1.26; relative viability ([20]; first compound 2.53 µM): 1.07; relative viability ([20]; first compound 8 µM): 1.04; relative viability ([21]; first compound 0.08 µM): 1.29; relative viability ([21]; first compound 0.8 µM): 1.26; relative viability ([21]; first compound 2.53 µM): 1.06; relative viability ([21]; first compound 8 µM): 1.06; relative viability ([22]; first compound 0.08 µM): 0.973; relative viability ([22]; first compound 0.8 µM): 0.976; relative viability ([22]; first compound 2.53 µM): 1.02; relative viability ([22]; first compound 8 µM): 1.02; relative viability ([23]; first compound 0.08 µM): 0.993; relative viability ([23]; first compound 0.8 µM): 1.03; relative viability ([23]; first compound 2.53 µM): 1.07; relative viability ([23]; first compound 8 µM): 0.991
